Experimental data as given in patent US9938249B2, “Anti-amyloid compounds containing benzofurazan” (Treventis Corporation, priority 2014, dated 2018).

How the values were obtained:
Aβ40 = Aβ40 (Homo sapiens, UniProt P05067); test: ThT Aβ aggregation assay (kinetic Thioflavin T fluorescence); assay type: biochemical; details: 20 μM Aβ, DMSO control at 80 hr = 0% inhibition, number in parenthesis = compound ID 1027 in that experiment; for inhibition at 10 µM: read-out: % inhib Thioflavin T Aβ 40 10 μM; for inhibition at 5 µM: 80 h, read-out: % inhib Thioflavin T Aβ 40 (5 μm)
Chain of Aβ40 (P05067 672-711, species assumed): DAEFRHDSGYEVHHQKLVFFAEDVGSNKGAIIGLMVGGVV
Experimental: Preparation of Aβ40 Stock Solutions
Aβ40 (1.0 mg) was pre-treated in a 1.5 mL microfuge tube with HFIP (1 mL) and sonicated for 20 min to disassemble any pre-formed Aβ aggregates. The HFIP was removed with a stream of argon and the Aβ dissolved in Tris base (5.8 mL, 20 mM, pH ˜10). The pH was adjusted to 7.4 with concentrated HCl (˜10 μL) and the solution filtered using a syringe filter (0.2 μm) before being used.
The kinetic ThT assay for Aβ aggregation is similar to that of Chalifour et al (Chalifour et al, 2003, J. Biol. Chem. 278:34874-81). Briefly, pre-treated Aβ40 or Aβ42 (40 μM in 20 mM Tris, pH 7.4) was diluted with an equal volume of 8 μM Thioflavin T (ThT) in Tris (20 mM, pH 7.4, 300 mM NaCl). Aliquots of Aβ/ThT (200 μL) were added to wells of a black polystyrene 96-well plate, followed by 2 μL of a compound in DMSO (variable concentration), or DMSO alone (controls). Incubations were performed in triplicate and were taken to contain 20 μM Aβ, various concentration of compound in 20 mM Tris, pH 7.4, 150 mM NaCl, 1% DMSO. Plates were covered with clear polystyrene lids and incubated at 37° C. in a Tecan Genios microplate reader.
Analysis of ThT and ThS Aggregation Assays
Fluorescence readings (λex=450 nm, λem=480 nm) were taken every 15 min., after first shaking at high intensity for 15 s and allowing to settle for 10 s before each reading. Active compounds attenuated the increase in fluorescence over time that occurred in controls. In FIGS. 1-7, the time this procedure was performed extended to 80 hours (rightmost part of X-axis), at which point fluorescence increase generally reached an asymptote. Applying a definition of DMSO control at 80 hr as 100% aggregation (0% inhibition) and DMSO control at 0 hr as 0% aggregation (100% inhibition), a % inhibition score where higher is better can be calculated for a given concentration of compound. By repeating this procedure over several concentrations, a […] (IC50) can be measured, as is given in the table below for some compounds.

[1] = target: Terminally biotinylated beta-amyloid (Aβ42) (Homo sapiens, UniProt P05067); test: Aβ42 biotinylated (biotin-AB) oligomerization assay, NeutrAvidin capture ELISA; assay type: biochemical; details: approximate value; 1 hr oligomerization at room temperature; read-out: IC50 Aβ 42-bio
Chain of Terminally biotinylated beta-amyloid (Aβ42) (P05067 672-713, species assumed): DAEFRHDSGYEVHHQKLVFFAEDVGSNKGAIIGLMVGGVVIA
Summary of the method: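 Biotin-Aβ42, pretreated with HFIP/TFA to remove seeds, oligomerized 1 h at room temperature with compound in 20 mM sodium phosphate pH 7.5, 150 mM NaCl (DMSO up to 1%). Oligomers captured on NeutrAvidin plates, detected with streptavidin-HRP/TMB at 450 nm; IC50 approximate, in µM.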

[2] = compound 5 μm (so in the source)

SMILES | inhibition at 10 µM (Aβ40; compound 10 μM) [%] | IC50 [1] [µM] | inhibition at 5 µM (Aβ40; [2]) [%] | % inhib Thioflavin T Aβ 40 10 μM (Aβ40; compound 10 μM) [%] | % inhib Thioflavin T Aβ 40 (5 μm) (Aβ40; [2]) [%]
N#Cc1cccc(-c2cc(N3CC(CN4CCCC4)C3)c3nonc3c2)c1 [compound 1493] | 57 | 12.9 | – | – | –
CN(C)C(=O)c1ccccc1-c1cc(N2CC(CN3CCCC3)C2)c2nonc2c1 [compound 1542] | 36 | > 20 | 15 | – | –
CC(=O)c1ccc(-c2cc(N3CC(CN4CCCC4)C3)c3nonc3c2)cc1 [compound 1512] | 77 | 12 | – | – | –
CS(=O)(=O)N1CCC=C(c2cc(N3CC(CN4CCCC4)C3)c3nonc3c2)C1 [compound 1522] | 44 | 10.1 | – | – | –
c1cc(-c2cc(N3CC(CN4CCCC4)C3)c3nonc3c2)cs1 [compound 1509] | 71 | > 20 | – | – | –
CN(C)C(=O)c1ccc(-c2cc(N3CC(CN4CCCC4)C3)c3nonc3c2)cc1 [compound 1516] | 47 | > 20 | – | – | –
c1cc(N2CC(CN3CCCC3)C2)c2nonc2c1 [compound 1473] | 31 | 18.1 | – | – | –
O=C(C1CN(c2cc(-c3cccc(C(O)C(F)(F)F)c3)cc3nonc23)C1)N1CCCC1 (centres unmarked) [compound 1498] | 48 | 10.8 | – | – | –
O=C(C1CN(c2cc(Br)cc3nonc23)C1)N1CCCC1 [compound 1497] | 65 | > 20 | – | – | –
CC(=O)N1CCC=C(c2cc(N3CC(CN4CCCC4)C3)c3nonc3c2)C1 [compound 1521] | 20 | 30.1 | – | – | –
c1coc(-c2cc(N3CC(CN4CCCC4)C3)c3nonc3c2)c1 [compound 1530] | 79 | 10.5 | – | – | –
COc1ccc(-c2cc(N3CC(CN4CCCC4)C3)c3nonc3c2)cc1C [compound 1488] | 31 | 8.69 | – | – | –
OCc1ccccc1-c1cc(N2CC(CN3CCCC3)C2)c2nonc2c1 [compound 1499] | 34 | 23.3 | – | – | –
CS(=O)(=O)c1ccc(-c2cc(N3CC(CN4CCCC4)C3)c3nonc3c2)cc1 [compound 1501] | 48 | > 20 | – | – | –
c1csc(-c2cc(N3CC(CN4CCCC4)C3)c3nonc3c2)c1 [compound 1529] | 74 | 9 | – | – | –
CSc1ccccc1-c1cc(N2CC(CN3CCCC3)C2)c2nonc2c1 [compound 1532] | 68 | 27.1 | – | – | –
COc1ccc(-c2cc(N3CC(CN4CCCC4)C3)c3nonc3c2)cc1OC [compound 1483] | 36 | 8.21 | – | – | –
c1cc(-c2cc(N3CC(CN4CCCC4)C3)c3nonc3c2)co1 [compound 1510] | 65 | > 20 | – | – | –

Compounds with a lower IC50 [1], results first:

inhibition at 10 µM (Aβ40; compound 10 μM) [%] | IC50 [1] [µM] | inhibition at 5 µM (Aβ40; [2]) [%] | % inhib Thioflavin T Aβ 40 10 μM (Aβ40; compound 10 μM) [%] | % inhib Thioflavin T Aβ 40 (5 μm) (Aβ40; [2]) [%] | SMILES
67 | 3.5 | – | – | – | CC(=O)N1C=C(c2cc(N3CC(CN4CCCC4)C3)c3nonc3c2)CCC1 [compound 1534]
49 | 7.5 | – | – | – | Cn1cc(-c2cc(N3CC(CN4CCCC4)C3)c3nonc3c2)cn1 [compound 1527]
64 | 5.91 | – | – | – | FC(F)(F)Oc1ccccc1-c1cc(N2CC(CN3CCCC3)C2)c2nonc2c1 [compound 1495]
55 | 7.8 | 53 | – | – | COC(c1cc(N2CC(CN3CCCC3)C2)c2nonc2c1)C(F)(F)F (centres unmarked) [compound 1539]
– | 3.5 | – | 74 | 71 | OC(c1cc(-c2cc(N3CC(CN4CCCC4)C3)c3nonc3c2)cs1)C(F)(F)F (centres unmarked) [compound 1537]
50 | 7.8 | – | – | – | c1cc(-c2cc(N3CC(CN4CCCC4)C3)c3nonc3c2)ccn1 [compound 1528]
54 | 2.9 | 47 | – | – | O=C(c1cc(N2CC(CN3CCCC3)C2)c2nonc2c1)N1CCOCC1 [compound 1538]
41 | 5.52 | – | – | – | CC(=O)Nc1ccc(-c2cc(N3CC(CN4CCCC4)C3)c3nonc3c2)cc1 [compound 1482]
29 | 4.4 | – | – | – | OC(c1ccccc1-c1cc(N2CC(CN3CCOCC3)C2)c2nonc2c1)C(F)(F)F (centres unmarked) [compound 1471]
61 | 4.2 | 43 | – | – | Cn1nccc1-c1cc(N2CC(CN3CCCC3)C2)c2nonc2c1 [compound 1536]
84 | 1.1 | 63 | – | – | OC(c1ccc(-c2cc(N3CC(CN4CCCC4)C3)c3nonc3c2)s1)C(F)(F)F (centres unmarked) [compound 1543]
45 | 2.7 | – | – | – | CN(C)C(=O)c1cccc(-c2cc(N3CC(CN4CCCC4)C3)c3nonc3c2)c1 [compound 1531]
31 | 4 | 19 | – | – | O=C(NC1CC1)c1cc(N2CC(CN3CCCC3)C2)c2nonc2c1 [compound 1541]
65 | 2.4 | 44 | – | – | OC(c1ccc(-c2cc(N3CCC(N4CCCC4)CC3)c3nonc3c2)cc1)C(F)(F)F (centres unmarked) [compound 1468]
22 | 4.8 | – | – | – | COc1ccc(-c2cc(N3CC(CN4CCCC4)C3)c3nonc3c2)cc1Cl [compound 1492]
77 | 2.9 | 71 | – | – | OC(c1cc(-c2cc(N3CC(CN4CCCC4)C3)c3nonc3c2)cs1)C(F)(F)F (centres unmarked) [compound 1535]
75 | 2.4 | 70 | – | – | CN(CCCN1CCCC1)c1cc(-c2cccc(C(O)C(F)(F)F)c2)cc2nonc12 (centres unmarked) [compound 1469]
65 | 3.6 | – | – | – | Brc1cc(N2CC(CN3CCCC3)C2)c2nonc2c1 [compound 1472, 6-bromo-4-(3-(pyrrolidin-1-ylmethyl)azetidin-1-yl)benzo[c][1,2,5]oxadiazole]
55 | 4.78 | – | – | – | FC(F)(F)c1ccc(-c2cc(N3CC(CN4CCCC4)C3)c3nonc3c2)cc1 [compound 1502]
34 | 1.6 | – | – | – | CC(C)c1ccc(-c2cc(N3CC(CN4CCCC4)C3)c3nonc3c2)cc1 [compound 1489]
26 | 2.63 | – | – | – | c1ccc2oc(-c3cc(N4CC(CN5CCCC5)C4)c4nonc4c3)cc2c1 [compound 1485]
46 | 6.1 | – | – | – | OC(c1cc(N2CC(CN3CCCC3)C2)c2nonc2c1)C(F)(F)F (centres unmarked) [compound 1520]
72 | 5.27 | – | – | – | c1ccc(Oc2ccccc2-c2cc(N3CC(CN4CCCC4)C3)c3nonc3c2)cc1 [compound 1504]
